Like-named read-outs stand apart in the source and are kept apart here.
Assays:
5-HT1A receptor = target: T1, 5-HT1A receptor (Sus scrofa, UniProt A0A4X1UTF5); assay: Affinity for serotonin 1A receptor: inhibition of [3H]MPPF binding in swine hippocampal membrane fraction; settings: for IC50: swine hippocampal membrane, 37°C 30 min; for L/H ratio: low affinity IC50 divided by high affinity IC50, 1 or smaller = no intrinsic activity, 2 or greater = intrinsic activity
T1 construct: Swine hippocampus was homogenized in a 50 mM Tris-Hcl buffer; from tissue; host or cells: swine hippocampus, membrane fraction
T1 sequence (A0A4X1UTF5 1-422): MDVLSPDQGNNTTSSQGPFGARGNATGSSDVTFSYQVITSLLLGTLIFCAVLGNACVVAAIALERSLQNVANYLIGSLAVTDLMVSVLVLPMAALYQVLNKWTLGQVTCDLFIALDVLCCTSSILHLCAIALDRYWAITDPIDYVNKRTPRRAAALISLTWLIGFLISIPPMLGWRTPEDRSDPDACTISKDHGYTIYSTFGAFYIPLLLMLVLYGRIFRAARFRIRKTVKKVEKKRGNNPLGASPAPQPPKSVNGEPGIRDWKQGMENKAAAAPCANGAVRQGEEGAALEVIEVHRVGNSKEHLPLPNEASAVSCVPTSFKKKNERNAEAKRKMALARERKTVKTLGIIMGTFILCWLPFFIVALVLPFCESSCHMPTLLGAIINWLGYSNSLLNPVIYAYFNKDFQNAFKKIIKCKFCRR
Description: (1) The affinity of a test substance for a 5-HT1A receptor was examined by an inhibition experiment, in which the inhibitory effect of the test substance against the binding of [^3H]-4-(2′-methoxy)phenyl-1-(2′-(N-2″-pyridinyl)-p-fluorobenzamido)ethyl-piperazine (MPPF) that selectively binds to the 5-HT1A receptor in a swine hippocampal membrane fraction was examined. The 5-HT1A receptor that is a G-protein binding receptor becomes a G-protein binding state with addition of MgCl2. In contrast, it becomes a G-protein non-binding state with addition of guanylylimido diphosphate (Gpp(NH)p). […] Thus, both the affinity of a test substance to the receptor that was in a state of not binding to the G-protein and the affinity of the test substance to the receptor that was in a state of binding to the G-protein were obtained. Then, the obtained values were compared to each other, so as to estimate the level of the intrinsic activity of the test substance. Theoretically, when the value (L/H) obtained by dividing the affinity of a test substance to the receptor that is in a low affinity state (IC50 value) by the affinity of a test substance to the receptor that is in a high affinity state (IC50 value) is 1 or less, the intrinsic activity thereof is zero. The greater this value, the higher the intrinsic activity that can be obtained.
Swine hippocampus was homogenized in a 50 mM Tris-Hcl buffer (pH 7.4; hereinafter referred to as buffer A) that had been cooled on ice. The suspension was centrifuged at 40,000×g for 15 minutes. The obtained pellet was suspended in buffer solution A, and the thus obtained solution was then centrifuged at 40,000×g for 15 minutes. The same operation was repeated 2 or 3 times. The finally obtained pellet was suspended in a buffer solution A in an amount 10 times the wet weight of the swine hippocampus, so as to obtain a membrane fraction. The obtained membrane fraction was stored at −80° C. until use.
A mixture (0.5 ml) used for incubation comprised an appropriate amount of the membrane fraction, a test substance with a desired concentration, MgCl2 (final concentration: 10 mM) or Gpp(NH)p (final concentration: 1 mM), [^3H]MPPF (final concentration: 0.5 nM), dimethyl sulfoxide (final concentration: 1% (v/v)), and a 50 mM Tris-Hcl buffer (pH 7.4). The reaction was initiated with addition of the membrane fraction, and the mixture was incubated at 37° C. for 30 minutes. After completion of the incubation, the mixture was subjected to vacuum filtration with a glass filter, using Cell Harvester. The filter was washed with buffer solution A that had been cooled on ice. Thereafter, radioactivity binding to the receptor was measured with a liquid scintillation counter. Non-specific binding was defined as binding detected in the presence of 10 μM WAY-100,635.

serotonin 1A receptor = target: T2, serotonin 1A receptor (Mus musculus, UniProt Q64264); assay: Antagonistic effect on serotonin 1A receptor agonist (8-OH-DPAT)-induced hypothermia in mouse; format: in vivo; settings: CD-1 (ICR) male mice; inhibition of hypothermia by 8-OH-DPAT 0.5 mg/kg sc; test substance 15 minutes before agonist
T2 construct: into the rectum of CD-1 (ICR) male mice (25-45 g); from tissue; host or cells: living CD-1 (ICR) male mice (in vivo)
T2 sequence (Q64264 1-421): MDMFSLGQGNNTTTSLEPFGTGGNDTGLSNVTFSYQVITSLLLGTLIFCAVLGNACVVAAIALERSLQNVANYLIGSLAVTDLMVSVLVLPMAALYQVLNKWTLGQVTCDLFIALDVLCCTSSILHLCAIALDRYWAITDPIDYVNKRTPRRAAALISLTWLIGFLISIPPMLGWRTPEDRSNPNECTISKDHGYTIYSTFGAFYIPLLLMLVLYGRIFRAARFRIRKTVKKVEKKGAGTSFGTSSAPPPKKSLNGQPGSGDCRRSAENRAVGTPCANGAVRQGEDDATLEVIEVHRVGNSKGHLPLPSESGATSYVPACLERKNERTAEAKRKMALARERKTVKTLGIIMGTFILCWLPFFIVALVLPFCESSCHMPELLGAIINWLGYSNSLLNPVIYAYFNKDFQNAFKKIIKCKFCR
Method: (1) A thermistor probe was inserted at a depth of approximately 2 cm into the rectum of CD-1 (ICR) male mice (25-45 g), so as to measure the body temperature thereof. Body temperature is decreased by subcutaneous administration of serotonin 1A receptor agonist (8-hydroxy-dipropylaminotetralin (8-OH-DPAT) 0;5 mg/kg. Since a serotonin 1A antagonist inhibits such action, the antagonistic effect of a test substance to a serotonin 1A receptor was evaluated using the inhibitory effect of the hypothermia as an index. The test results are shown in Table 2 indicated below. A test substance was administered 15 minutes before the administration of the serotonin 1A agonist. A serotonin 1A partial agonist alone decreases the body temperature, depending on the degree of the agonistic action thereof. In addition, it has a weak antagonistic effect on 8-OH-DPAT-induced hypothermia.

[1] = [3H]MPPF 0.5 nM, receptor in high affinity (G-protein binding, MgCl2 10 mM) state, read-out: High affinity IC50
[2] = [3H]MPPF 0.5 nM, receptor in low affinity (G-protein non-binding, Gpp(NH)p 1 mM) state, read-out: Low affinity IC50

IC50 (5-HT1A receptor; [1]) [nM] | IC50 (5-HT1A receptor; [2]) [nM] | L/H ratio (5-HT1A receptor) | ED50 (serotonin 1A receptor) | SMILES | IC50 (5-HT1A receptor; High affinity IC50, [3H]MPPF 0.5 nM, receptor in high affinity (G-protein binding, MgCl2 10 mM) state) [nM] | IC50 (5-HT1A receptor; Low affinity IC50, [3H]MPPF 0.5 nM, receptor in low affinity (G-protein non-binding, Gpp(NH)p 1 mM) state) [nM]
0.27 | 0.23 | 0.9 | 0.2 mg/kg, sc | COc1ccc2c(=O)ccoc2c1CCN1CCC(n2ccc3ccc(C(N)=O)cc32)CC1 [Compound 35, 1-{1-[2-(7-methoxy-4-oxo-4H-chromen-8-yl)ethyl]piperidin-4-yl}-1H-indole-6-carboxamide] | – | –
0.41 | 0.3 | 0.7 | 0.38 mg/kg, sc | COc1ccc2oc(C)nc2c1CCN1CCC(n2ccc3ccc(C(N)=O)cc32)CC1 [Compound 7, 1-{1-[2-(5-methoxy-2-methylbenzoxazol-4-yl)ethyl]piperidin-4-yl)-1H-indole-6-carboxamide] | – | –
0.57 | 0.45 | 0.8 | 0.24 mg/kg, sc | CCc1nc2ccc(OC)c(CCN3CCC(n4ccc5ccc(C(N)=O)cc54)CC3)c2o1 [Compound 5] | – | –
0.17 | 0.12 | 0.7 | 0.12 mg/kg, sc | COc1cc2c(cc1CCN1CCC(n3ccc4ccc(C(N)=O)cc43)CC1)C(=O)N(C)CC2 [Compound 33, 1-{1-[2-(6-methoxy-2-methyl-1-oxo-1,2,3,4-tetrahydroisoquinoline-7-yl)ethyl]piperidin-4-yl}-1H-indole-6-carboxamide] | – | –
0.2 | 0.19 | 1 | 0.62 mg/kg, sc | COc1ccc2ncccc2c1CCN1CCC(n2ccc3ccc(C(N)=O)cc32)CC1 [Compound 30, 1-{1-[2-(6-methoxyquinolin-5-yl)ethyl]piperidin-4-yl}-1H-indole-6-carboxamide] | – | –
0.2 | 0.13 | 0.7 | 0.19 mg/kg, sc | CNC(=O)c1ccc2ccn(C3CCN(CCc4cc5c(cc4OC)CCN(C)C5=O)CC3)c2c1 [Compound 38, 1-{1-[2-(6-methoxy-2-methyl-1-oxo-1,2,3,4-tetrahydroisoquinolin-7-yl)ethyl]piperidin-4-yl}-N-methyl-1H-indole-6-carboxamide] | – | –
0.27 | 0.35 | 1.3 | 0.4 mg/kg, sc | COc1cc2onc(C)c2cc1CCN1CCC(n2ccc3ccc(C(N)=O)cc32)CC1 [Compound 2, 1-{1-[2-(6-methoxy-3-methylbenzo[d]isoxazol-5-yl)ethyl]piperidin-4-yl}-1H-indole-6-carboxamide] | – | –
0.18 | 0.24 | 1.3 | 0.1 mg/kg, sc | COc1cc2c(cc1CCN1CCC(n3ccc4ccc(C(N)=O)cc43)CC1)N(C)C(=O)CC2 [Compound 57, 1-{1-[2-(6-methoxy-1-methyl-2-oxo-1,2,3,4-tetrahydroquinolin-7-yl)ethyl]piperidin-4-yl}-1H-indole-6-carboxamide] | – | –
0.58 | 0.69 | 1.2 | 0.26 mg/kg, sc | COc1cc2ccccc2cc1CCN1CCC(n2ccc3ccc(C(N)=O)cc32)CC1 [Compound 45, 1-{1-[2-(3-methoxynaphthalen-2-yl)ethyl]piperidin-4-yl}-1H-indole-6-carboxamide] | – | –
0.18 | 0.16 | 0.9 | 0.1 mg/kg, sc | COc1ccc2c(c1CCN1CCC(n3ccc4ccc(C(N)=O)cc43)CC1)CCC2=O [Compound 25, 1-{1-[2-(5-methoxy-1-oxoindan-4-yl)ethyl]piperidin-4-yl}-1H-indole-6-carboxamide] | – | –
0.14 | 0.19 | 1.4 | 0.02 mg/kg, sc | COc1cc2nc(C)sc2cc1CCN1CCC(n2ccc3ccc(C(N)=O)cc32)CC1 [Compound 28, 1-{1-[2-(5-methoxy-2-methylbenzothiazol-6-yl)ethyl]piperidin-4-yl}-1H-indole-6-carboxamide] | – | –
0.16 | 0.15 | 0.9 | 0.04 mg/kg, sc | COc1cc2c(cc1CCN1CCC(n3ccc4ccc(C(N)=O)cc43)CC1)OCCO2 [Compound 31, 1-{1-[2-(7-methoxy-2,3-dihydrobenz[1,4]dioxin-6-yl)ethyl]piperidin-4-yl}-1H-indole-6-carboxamide] | – | –
0.23 | 0.26 | 1.1 | 0.42 mg/kg, sc | COc1ccc2sc(C)nc2c1CCN1CCC(n2ccc3ccc(C(N)=O)cc32)CC1 [Compound 27, 1-{1-[2-(5-methoxy-2-methylbenzothiazol-4-yl)ethyl]piperidin-4-yl}-1H-indole-6-carboxamide] | – | –
0.26 | 0.14 | 0.5 | 0.2 mg/kg, sc | COc1ccc2c(=O)c(C)c(C)oc2c1CCN1CCC(n2ccc3ccc(C(N)=O)cc32)CC1 [Compound 36, 1-{1-[2-(7-methoxy-2,3-dimethyl-4-oxo-4H-chromen-8-yl)ethyl]piperidin-4-yl}-1H-indole-6-carboxamide] | – | –
0.22 | 0.23 | 1 | 0.07 mg/kg, sc | COc1cc2nc(C)oc2cc1CCN1CCC(n2ccc3ccc(C(N)=O)cc32)CC1 [Compound 8, 1-{1-[2-(5-methoxy-2-methylbenzoxazol-6-yl)ethyl]piperidin-4-yl}-1H-indole-6-carboxamide] | – | –

SMILES | IC50 (5-HT1A receptor; [1]) [nM] | IC50 (5-HT1A receptor; [2]) [nM] | L/H ratio (5-HT1A receptor) | ED50 (serotonin 1A receptor) | IC50 (5-HT1A receptor; High affinity IC50, [3H]MPPF 0.5 nM, receptor in high affinity (G-protein binding, MgCl2 10 mM) state) [nM] | IC50 (5-HT1A receptor; Low affinity IC50, [3H]MPPF 0.5 nM, receptor in low affinity (G-protein non-binding, Gpp(NH)p 1 mM) state) [nM]
COc1ccc2c(C)noc2c1CCN1CCC(n2ccc3ccc(C(N)=O)cc32)CC1 [Compound 1, 1-{1-[2-(6-methoxy-3-methylbenz[d]isoxazol-7-yl)ethyl]piperidin-4-yl}-1H-indole-6-carboxamide] | – | – | 1.6 | 0.3 mg/kg, sc | 0.16 | 0.26

From patent US20050256103A1, “Indole derivative having piperidine ring” (Eisai Co., Ltd., priority 2004, published 2005)
